# Test results: patent US3933794A, “2-(2-Alkynylamino)-3H-1,4-benzodiazepines” (priority 1973, dated 1976)
# Assays:
# Format in all cases: in vivo
# mice [1] = assay: Nicotine antagonism test; details: Mus musculus, ip, 0.5 h, intraperitoneal injection, nicotine salicylate 2 mg./kg. 30 minutes later, (3) = death, read-out: ED50 Ni (nicotine antagonism (3) test)
# Procedure: (§1) Sedative effects of the compounds of this invention are shown by the following tests in mice:
# Nicotine antagonism test: Mice in a group of 6 are injected with the text compound. Thirty minutes later the mice including control (untreated) mice are injected with nicotine salicylate (2 mg./kg.). The control mice show over-stimulation, i.e., (1) running convulsions followed by (2) tonic extensor filts; followed by (3) death.
# mice [2] = assay: Chimney test; details: Mus musculus, ip, intraperitoneal injection, 50% of mice fail to back out of glass cylinder within 30 seconds, read-out: ED50 Ch (chimney test)
# Excerpt: as §1
# Chimney test: [Med. Exp. 4, 145 (1961)]: The test determines the ability of mice to back up and out of a vertical glass cylinder within 30 seconds. At the effective dosage, 50% of the mice failed doing it.
# mice [3] = assay: Pedestal test; details: Mus musculus, ip, 1 min, intraperitoneal injection, mice stay on pedestal for more than 1 minute, read-out: ED50 P (pedestal test)
# Procedure: as §1
# Pedestal test: The untreated mouse leaves a standard pedestal in less than a minute to climb back to the floor of the standard mouse box. Tranquilized mice will stay on the pedestal for more than 1 minutes.
# mice [4] = assay: Antagonism to strychnine (as sulfate); details: Mus musculus, ip, 4 h, read-out: ED50 Str (strychnine antagonism)
# Procedure: as §1
# Antagonism to strychnine (as sulfate): The test consists in orally administering into groups of 6 mice the test compound, and 30 minutes later 3 mg./kg. strychnine sulfate intraperitoneally. The survivors after 4 hours reflect the activity of the compound as a muscle relaxant and antispasmodic. A dosage of 3 mg./kg. of strychnine sulfate is routinely fatal to all the control mice.
# mice [5] = assay: Dish test; details: Mus musculus, ip, 0.05 h, intraperitoneal injection, 50% of mice remain in dish for more than 3 minutes, read-out: ED50 D (dish test)
# Procedure: as §1
# Dish test: Mice in Petri dishes (10 cm. diameter, 5 cm. high, partially embedded in wood shavings), climb out in a very short time, when not treated. Mice remaining in the dish for more than 3 minutes indicates tranquilization. ED50 equals the dose of test compound at which 50% of the mice remain in the dish.
SMILES,ED50 (mice [1]),ED50 (mice [2]),ED50 (mice [3]),ED50 (mice [4]),ED50 (mice [5])
"Cc1cnc2n1-c1ccc(Cl)cc1C(c1ccccc1)=NC2 [8-chloro-1-methyl-6-phenyl-4H-imidazo[1,2-a]-[1,4]benzodiazepine]",1.8 mg/kg,25 mg/kg,28 mg/kg,79 mg/kg,5 mg/kg
"O=Cc1cnc2n1-c1ccc(Cl)cc1C(c1ccccc1)=NC2 [8-chloro-6-phenyl-4H-imidazo[1,2-a][1,4]benzodiazepine-1-carboxaldehyde]",0.36 mg/kg,4 mg/kg,2.8 mg/kg,11 mg/kg,0.8 mg/kg
"Cc1cnc2n1-c1ccc(Cl)cc1C(c1ccccc1Cl)=NC2 [8-chloro-6-(2-chlorophenyl)-1-methyl-4H-imidazo[1,2-a][1,4]benzodiazepine]",0.13 mg/kg,0.5 mg/kg,0.4 mg/kg,1.8 mg/kg,0.23 mg/kg
